Publication PMC7534258, “Novel temporin L antimicrobial peptides: promoting self-assembling by lipidic tags to tackle superbugs” (Journal of Enzyme Inhibition and Medicinal Chemistry, 2020)
Where two headings read alike, the source gives them in different places. Where a SMILES comes first, the peptide text is derived from it. [ ]: non-standard residue; d: D form. The star is where a group is joined. Phe(4-NH2) = Nc1ccc(C[C@H](N)C(=O)O)cc1; Pentanoyl = CCCCC(=O)*

How the values were obtained:
[1] = system: K. pneumoniae ATCC BAA-1705; experiment: Broth microdilution MIC, reference strain; assay type: cell-based, Klebsiella pneumoniae
Protocol: Staphylococcus aureus ATCC 25923, Pseudomonas aeruginosa ATCC 27853 and Klebsiella pneumoniae ATCC BAA-1705 (carbapenemase producer) were obtained from the American Type Culture Collection (Rockville, MD).
Identification was performed by sub-culturing on Tryptic Soy Agar (TSA, Becton Dickinson) and by biochemical characterisation using the Vitek II system (Biomerieux). The antimicrobial susceptibility testing of all isolates was determined using Vitek II system and results were interpreted according to European Committee on Antimicrobial Susceptibility Testing (EUCAST version 9.0, 2019). P. aeruginosa was cultured in Brain Heart Infusion broth (BHI, OXOID), S. aureus and K. pneumoniae were cultured in Tryptic Soya broth (TSB, OXOID), under aerobic conditions at 37 °C, for 24 h on an orbital shaker at 200 rpm.
Minimal inhibitory concentrations (MIC) of all the peptides were determined in Mueller–Hinton medium by the broth microdilution assay, following the procedure already described[22]^,[34]. The compounds were added to bacterial suspension in each well yielding a final cell concentration of 1 × 10^6 CFU/ml and a final compound concentration ranging from 0.78 to 100 µM. Negative control wells were set to contain bacteria in Mueller–Hinton broth plus the amount of vehicle (ethanol) used to dilute each compound. Positive controls included vancomycin (2 µg/ml), tobramycin (4 µg/ml), gentamycin (4 µg/ml), and imipenem (8 µg/ml).

Pa2 = experiment: microbe, parasite or virus in culture; settings: multidrug resistant clinical isolate
[2] = 90% human serum, 37 ± 1 °C, 200 µM
Protocol: Human serum from human male AB plasma was acquired by Sigma-Aldrich-Merk. Water and MeCN were obtained from commercial suppliers and used without further purification. Analytical RP-UHPLC was performed on a Shimadzu Nexera equipped with a Phenomenex Kinetex column (C18, 4.6 mm x 150 mm, […]) and H2O (0.1% TFA) and MeCN (0.1% TFA) as eluents.
Serum stability was evaluated by modification of elsewhere described methods[37]^,[38]. In particular, the human serum was allocated into a 1.5 ml eppendorf tube and temperature equilibrated at 37 ± 1 °C for 15 min. Peptides 1B, and C were dissolved in sterile water to prepare a stock solution of 2 mM and then mixed with the human serum to make a final concentration of 0.2 mM (90% serum). The resulting reaction solution was incubated at 37 ± 1 °C. Aliquots of the reaction solutions were taken at known time intervals (0, 15, 45, 75, 90, 120 min), subjected to serum proteins precipitation by addition of MeCN (double volume respect to the aliquot). The cloudy reaction sample was cooled (4 °C) for 15 min and then spun at 13000 rpm for 10 min to pellet the precipitated serum proteins. The supernatant was then analysed by RP-UHPLC by using a linear elution gradient from 10 to 90% MeCN (0.1% TFA) in water (0.1% TFA) over 20 min. A flow rate of 1 ml/min was used, absorbance was detected at 220 nm, and the analysis was performed at room temperature.

HaCaT cells [3] = settings: 24 h, at 25.0 µM
Protocol: The human immortalised keratinocytes HaCaT cells (AddexBio, San Diego, CA, USA) were cultured in Dulbecco’s modified Eagle’s medium containing 4 mM glutamine (DMEMg), supplemented with 10% heat-inactivated foetal bovine serum (FBS) and 0.1 mg/ml of penicillin and streptomycin, at 37 °C and 5% CO2, in 25 cm^2 or 75 cm^2 flasks[33].
The colorimetric MTT assay was carried out to measure cellular metabolic activity in terms of cell viability[33]^,[36]. Viable cells are able to reduce, by active mitochondrial dehydrogenases, the yellow salt MTT to purple formazan crystals. Briefly, 4 × 10^4 HaCaT cells, suspended in DMEMg supplemented with 2% FBS, were plated in each well of a 96-well microtiter plate. After overnight incubation, at 37 °C in a 5% CO2 atmosphere, keratinocytes were treated for 24 h with fresh serum-free medium containing the peptides 3B and C at concentrations ranging from 3.12 µM to 25 µM. Afterward, the culture medium was replaced with Hank’s buffer supplemented with 0.5 mg/ml MTT and the plate was incubated at 37 °C and 5% CO2 for 4 h. At the end, acidified isopropanol was employed to dissolve the formazan crystals. Cell viability was calculated, with respect to cells not treated with peptide, by absorbance measurements at 570 nm using a microplate reader (Infinite M200; Tecan, Salzburg, Austria)[33]. […]

HaCaT cells [4] = settings: at 25.0 µM, ref Merlino et al. [22]; cited from earlier work

## CCCCC(=O)Nc1ccc(C[C@H](N)C(=O)N[C@H](C(=O)N2CCC[C@H]2C(=O)N[C@@H](Cc2c[nH]c3ccccc23)C(=O)N[C@@H](Cc2ccccc2)C(=O)N[C@@H](CO)C(=O)N[C@@H](CCCCN)C(=O)N[C@@H](Cc2ccccc2)C(=O)N[C@H](CC(C)C)C(=O)N[C@H](CCCCN)C(=O)N[C@@H](CCCNC(=N)N)C(=O)N[C@H](C(=O)N[C@@H](CC(C)C)C(N)=O)[C@@H](C)CC)C(C)C)cc1 [C, H-Phe(4-NHCO(CH2)3CH3)-Val-Pro-Trp-Phe-Ser-Lys-Phe-DLeu-DLys-Arg-Ile- Leu-NH2] (H-[Phe(4-NH2)](Pentanoyl)VPWFSKF[dL][dK]RIL-NH2)
[1]; ATCC BAA-1705
  Antimicrobial activity (MIC) K. pneumoniae ATCC BAA-1705: 6.25 µM
Pa2
  Antimicrobial activity (MIC) Pa2: 25 µM
[2]
  start of partial degradation in human serum: 80 min
  time peptide is stable in human serum: up to 1 h
HaCaT cells [3]
  cytotoxicity: 13.29%

## CC[C@H](C)[C@H](NC(=O)[C@H](CCCNC(=N)N)NC(=O)[C@@H](CCCCN)NC(=O)[C@@H](CC(C)C)NC(=O)[C@H](Cc1ccccc1)NC(=O)[C@H](CCCCN)NC(=O)[C@H](CO)NC(=O)[C@H](Cc1ccccc1)NC(=O)[C@H](Cc1c[nH]c2ccccc12)NC(=O)[C@@H]1CCCN1C(=O)[C@@H](NC(=O)[C@@H](N)Cc1ccccc1)C(C)C)C(=O)N[C@@H](CC(C)C)C(N)=O [Compound 1B, H-Phe-Val-Pro-Trp-Phe-Ser-Lys-Phe-DLeu-DLys-Arg-Ile-Leu-NH2] (H-FVPWFSKF[dL][dK]RIL-NH2)
[1]; 100% growth inhibition after 16–18 h at 37 °C
  Antimicrobial activity (MIC) K. pneumoniae ATCC BAA-1705: 12.5 µM
Pa2
  Antimicrobial activity (MIC) Pa2: 12.5 µM
[2]; within 120 min
  proteolytic stability in human serum (in words): rapidly degraded
HaCaT cells [4]
  cytotoxicity: 28.22%
